# Results from ChEMBL document CHEMBL1201862, “PubChem BioAssay data set” (2004).
# Activity calls are given as the source filed them.
# Columns and labels:
# [1] = molecular target: T1, Eukaryotic translation initiation factor 2-alpha kinase 3 (Homo sapiens, UniProt Q9NZJ5); experiment: Counterscreen assay for PERK inhibitors: Dose response cell-based high throughput screening assay to measure inhibition of PERK at 6 hours. [Related pubchem assays: 1522, 1416 ]; assay type: functional
# T1 sequence (Q9NZJ5 whole entry): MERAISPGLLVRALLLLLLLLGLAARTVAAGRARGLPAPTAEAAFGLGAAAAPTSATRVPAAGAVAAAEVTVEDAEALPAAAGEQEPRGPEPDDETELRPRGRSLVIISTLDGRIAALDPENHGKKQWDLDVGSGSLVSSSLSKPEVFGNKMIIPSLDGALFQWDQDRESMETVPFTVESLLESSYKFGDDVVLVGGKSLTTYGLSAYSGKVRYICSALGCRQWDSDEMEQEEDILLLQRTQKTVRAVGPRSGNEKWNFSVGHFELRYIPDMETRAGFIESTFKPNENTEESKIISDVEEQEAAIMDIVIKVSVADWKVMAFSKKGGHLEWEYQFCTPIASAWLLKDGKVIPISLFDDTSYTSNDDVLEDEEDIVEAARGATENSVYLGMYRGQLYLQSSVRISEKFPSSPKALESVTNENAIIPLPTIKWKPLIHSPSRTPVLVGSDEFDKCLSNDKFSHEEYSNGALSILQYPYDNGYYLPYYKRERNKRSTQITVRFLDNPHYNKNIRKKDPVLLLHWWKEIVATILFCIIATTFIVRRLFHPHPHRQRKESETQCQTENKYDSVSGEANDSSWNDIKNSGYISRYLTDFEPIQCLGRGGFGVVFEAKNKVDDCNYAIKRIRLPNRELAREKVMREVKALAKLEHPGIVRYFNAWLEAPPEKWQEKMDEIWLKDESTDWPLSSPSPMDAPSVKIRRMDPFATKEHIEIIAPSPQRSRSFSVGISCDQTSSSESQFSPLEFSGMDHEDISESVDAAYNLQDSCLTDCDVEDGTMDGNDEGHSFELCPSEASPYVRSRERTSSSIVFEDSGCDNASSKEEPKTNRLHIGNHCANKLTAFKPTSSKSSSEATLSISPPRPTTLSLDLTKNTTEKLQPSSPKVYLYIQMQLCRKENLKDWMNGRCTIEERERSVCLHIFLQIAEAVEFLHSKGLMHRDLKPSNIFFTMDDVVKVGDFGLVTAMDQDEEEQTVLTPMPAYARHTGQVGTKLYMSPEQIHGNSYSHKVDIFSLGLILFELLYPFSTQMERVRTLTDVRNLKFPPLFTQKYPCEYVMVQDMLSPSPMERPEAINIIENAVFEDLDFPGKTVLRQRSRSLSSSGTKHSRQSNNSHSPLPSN
# [2] = luciferase reporter signal suppression in cells – H4 neuroglioma cells, luminescence, dose response (AID 1990); assay type: functional, cell-based
# [3] = molecular target: T1, Eukaryotic translation initiation factor 2-alpha kinase 3; experiment: Dose response cell-based high-throughput screening assay to measure PERK inhibition. [Related pubchem assays: 1416 ]; assay type: functional
# Cytochrome P450 2D6 = Cytochrome P450 2D6 (Homo sapiens, UniProt P10635);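 further: CYP2D6 member of a cytochrome P450 panel assay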
# Cytochrome P450 2D6, sequence (P10635 whole entry): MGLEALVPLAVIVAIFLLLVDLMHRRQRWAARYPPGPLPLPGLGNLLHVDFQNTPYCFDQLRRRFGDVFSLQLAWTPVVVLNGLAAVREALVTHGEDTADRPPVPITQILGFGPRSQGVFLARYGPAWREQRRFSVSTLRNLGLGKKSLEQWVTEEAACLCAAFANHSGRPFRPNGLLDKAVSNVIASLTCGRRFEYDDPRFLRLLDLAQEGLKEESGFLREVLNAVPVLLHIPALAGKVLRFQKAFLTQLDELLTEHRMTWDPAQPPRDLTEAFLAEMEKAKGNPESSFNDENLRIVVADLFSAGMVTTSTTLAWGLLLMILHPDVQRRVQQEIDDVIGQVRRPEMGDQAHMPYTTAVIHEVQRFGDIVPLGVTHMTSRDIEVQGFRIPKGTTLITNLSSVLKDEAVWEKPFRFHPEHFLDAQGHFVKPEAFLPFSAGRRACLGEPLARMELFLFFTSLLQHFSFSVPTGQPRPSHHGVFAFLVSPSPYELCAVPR
# [4] = Luminescence Cell-Based Dose Response HTS to Identify Inhibitors of 5'UTR Stem-Loop Driven Prion Protein mRNA Translation in H4 Neuroglioblastoma Cells. [Related pubchem assays: 1827 (Project Summary), 1813 (Primary HTS)]; assay type: functional
# [5] = alpha-synuclein stem-loop luciferase translation blockers – H4 neuroglioma cells, luminescence, confirmation (AID 1988); assay type: functional, cell-based
# Cytochrome P450 2C19 = Cytochrome P450 2C19 (Homo sapiens, UniProt P33261); experiment: Cytochrome panel assay with activity outcomes. Panel member name: p450-cyp2c19 Compounds with AC50 equal or less than 10 uM are considered active; assay type: functional
# Cytochrome P450 2C19, sequence (P33261 whole entry): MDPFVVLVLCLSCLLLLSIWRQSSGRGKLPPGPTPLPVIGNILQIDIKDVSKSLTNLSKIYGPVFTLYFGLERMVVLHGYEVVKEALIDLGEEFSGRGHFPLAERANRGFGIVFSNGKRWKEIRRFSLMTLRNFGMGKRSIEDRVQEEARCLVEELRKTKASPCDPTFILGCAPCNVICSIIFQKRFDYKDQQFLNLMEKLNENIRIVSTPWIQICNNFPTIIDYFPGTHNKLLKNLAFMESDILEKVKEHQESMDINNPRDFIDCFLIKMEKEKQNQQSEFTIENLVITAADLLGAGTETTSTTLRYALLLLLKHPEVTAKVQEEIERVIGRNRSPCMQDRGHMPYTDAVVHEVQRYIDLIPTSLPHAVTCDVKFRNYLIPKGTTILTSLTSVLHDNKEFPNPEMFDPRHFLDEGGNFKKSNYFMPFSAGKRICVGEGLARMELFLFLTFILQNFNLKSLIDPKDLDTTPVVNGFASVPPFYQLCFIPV
# Fatty acid synthase [6] = molecular target: T2, Fatty acid synthase (Homo sapiens, UniProt P49327); experiment: inhibition of human FAS-TE enzyme activity – biochemical, endpoint fluorescence intensity, uHTS hits, dose response (AID 624327); assay type: functional;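 further: fluorescence from hydrolysis of an O-methyl fluorescein acyl ester substrate by the enzyme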
# T2 sequence (P49327 whole entry): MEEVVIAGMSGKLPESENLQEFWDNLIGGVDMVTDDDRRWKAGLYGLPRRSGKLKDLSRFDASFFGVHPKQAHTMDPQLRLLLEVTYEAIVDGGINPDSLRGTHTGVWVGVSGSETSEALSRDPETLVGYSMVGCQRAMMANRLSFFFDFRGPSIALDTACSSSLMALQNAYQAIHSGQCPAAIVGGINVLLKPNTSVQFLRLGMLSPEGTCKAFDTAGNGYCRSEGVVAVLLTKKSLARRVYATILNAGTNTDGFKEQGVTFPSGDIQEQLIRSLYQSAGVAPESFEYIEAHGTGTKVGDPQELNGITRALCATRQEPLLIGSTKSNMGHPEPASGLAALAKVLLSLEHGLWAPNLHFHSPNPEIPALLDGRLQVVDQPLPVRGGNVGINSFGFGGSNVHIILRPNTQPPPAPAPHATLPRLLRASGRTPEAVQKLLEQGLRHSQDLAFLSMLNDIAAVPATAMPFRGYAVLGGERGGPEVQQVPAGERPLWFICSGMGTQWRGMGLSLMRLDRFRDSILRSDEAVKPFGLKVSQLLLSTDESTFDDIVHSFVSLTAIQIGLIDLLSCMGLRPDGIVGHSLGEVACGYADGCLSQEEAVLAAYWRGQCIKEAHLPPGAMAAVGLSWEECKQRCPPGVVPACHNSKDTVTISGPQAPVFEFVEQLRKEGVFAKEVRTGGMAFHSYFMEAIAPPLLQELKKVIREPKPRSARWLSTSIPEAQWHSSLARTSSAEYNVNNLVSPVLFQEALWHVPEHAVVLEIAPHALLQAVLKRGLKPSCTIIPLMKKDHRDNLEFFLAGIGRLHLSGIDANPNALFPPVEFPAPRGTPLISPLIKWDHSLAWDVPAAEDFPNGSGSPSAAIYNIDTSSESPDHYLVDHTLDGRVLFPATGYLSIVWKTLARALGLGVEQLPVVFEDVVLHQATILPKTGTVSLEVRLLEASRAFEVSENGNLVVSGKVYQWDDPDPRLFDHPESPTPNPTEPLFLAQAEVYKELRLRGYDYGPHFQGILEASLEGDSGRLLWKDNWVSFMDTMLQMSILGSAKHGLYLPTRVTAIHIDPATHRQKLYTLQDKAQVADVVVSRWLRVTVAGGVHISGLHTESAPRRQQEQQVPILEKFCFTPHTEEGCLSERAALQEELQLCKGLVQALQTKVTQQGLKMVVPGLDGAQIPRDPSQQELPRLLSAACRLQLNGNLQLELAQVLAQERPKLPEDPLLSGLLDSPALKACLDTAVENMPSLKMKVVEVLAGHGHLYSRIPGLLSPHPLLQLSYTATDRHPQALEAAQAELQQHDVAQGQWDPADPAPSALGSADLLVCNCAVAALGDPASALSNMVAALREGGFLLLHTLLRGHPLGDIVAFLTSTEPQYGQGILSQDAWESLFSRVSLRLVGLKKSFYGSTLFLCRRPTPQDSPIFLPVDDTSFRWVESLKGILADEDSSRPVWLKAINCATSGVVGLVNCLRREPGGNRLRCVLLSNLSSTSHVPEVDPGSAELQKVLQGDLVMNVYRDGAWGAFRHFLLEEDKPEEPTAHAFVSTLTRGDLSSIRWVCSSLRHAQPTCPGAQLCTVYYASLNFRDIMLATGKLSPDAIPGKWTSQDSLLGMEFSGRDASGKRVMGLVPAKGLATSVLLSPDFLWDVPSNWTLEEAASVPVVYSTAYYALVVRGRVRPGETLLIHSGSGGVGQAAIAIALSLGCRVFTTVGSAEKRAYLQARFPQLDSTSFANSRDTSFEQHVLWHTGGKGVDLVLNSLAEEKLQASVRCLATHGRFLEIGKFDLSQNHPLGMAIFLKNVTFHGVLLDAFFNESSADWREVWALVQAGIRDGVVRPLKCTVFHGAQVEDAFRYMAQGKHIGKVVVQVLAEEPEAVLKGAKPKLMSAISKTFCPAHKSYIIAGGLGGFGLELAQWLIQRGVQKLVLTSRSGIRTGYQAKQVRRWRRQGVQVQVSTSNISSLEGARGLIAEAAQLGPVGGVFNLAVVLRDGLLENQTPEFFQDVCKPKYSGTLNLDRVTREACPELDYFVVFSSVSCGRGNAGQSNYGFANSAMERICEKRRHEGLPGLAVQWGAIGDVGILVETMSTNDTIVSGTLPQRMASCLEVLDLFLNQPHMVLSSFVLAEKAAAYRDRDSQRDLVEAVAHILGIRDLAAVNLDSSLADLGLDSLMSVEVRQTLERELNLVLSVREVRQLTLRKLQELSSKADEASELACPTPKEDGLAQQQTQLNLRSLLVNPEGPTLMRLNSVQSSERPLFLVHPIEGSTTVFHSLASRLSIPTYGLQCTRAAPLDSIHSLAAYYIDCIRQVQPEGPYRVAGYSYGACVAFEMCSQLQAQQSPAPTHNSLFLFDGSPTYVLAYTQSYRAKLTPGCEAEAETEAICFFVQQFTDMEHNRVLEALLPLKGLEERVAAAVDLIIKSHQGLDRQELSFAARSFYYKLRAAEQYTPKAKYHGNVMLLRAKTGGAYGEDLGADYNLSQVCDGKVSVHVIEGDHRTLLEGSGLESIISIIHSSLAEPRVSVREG
# Prothrombin = Prothrombin (Homo sapiens, UniProt P00734); experiment: Thrombin 1536 HTS Dose Response Confirmation. [Related pubchem assays: 1046 (Thrombin 1536 HTS; hits were confirmed in this assay)]; assay type: functional
# Fatty acid synthase [7] = molecular target: T2, Fatty acid synthase; experiment: inhibition of human FAS-TE enzyme activity – biochemical, kinetic fluorescence intensity, dose response (AID 624326); assay type: functional;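 further: rate of fluorescence rise from hydrolysis of a fluorogenic O-methyl fluorescein ester substrate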
# [8] = molecular target: T3, Replicative DNA helicase DnaB (Mycobacterium tuberculosis, UniProt P9WMR3); experiment: DnaB intein splicing inhibitors, dose response, biochemical, cell-free fluorescence (AID 449749); assay type: functional
# T3 sequence (P9WMR3 whole entry): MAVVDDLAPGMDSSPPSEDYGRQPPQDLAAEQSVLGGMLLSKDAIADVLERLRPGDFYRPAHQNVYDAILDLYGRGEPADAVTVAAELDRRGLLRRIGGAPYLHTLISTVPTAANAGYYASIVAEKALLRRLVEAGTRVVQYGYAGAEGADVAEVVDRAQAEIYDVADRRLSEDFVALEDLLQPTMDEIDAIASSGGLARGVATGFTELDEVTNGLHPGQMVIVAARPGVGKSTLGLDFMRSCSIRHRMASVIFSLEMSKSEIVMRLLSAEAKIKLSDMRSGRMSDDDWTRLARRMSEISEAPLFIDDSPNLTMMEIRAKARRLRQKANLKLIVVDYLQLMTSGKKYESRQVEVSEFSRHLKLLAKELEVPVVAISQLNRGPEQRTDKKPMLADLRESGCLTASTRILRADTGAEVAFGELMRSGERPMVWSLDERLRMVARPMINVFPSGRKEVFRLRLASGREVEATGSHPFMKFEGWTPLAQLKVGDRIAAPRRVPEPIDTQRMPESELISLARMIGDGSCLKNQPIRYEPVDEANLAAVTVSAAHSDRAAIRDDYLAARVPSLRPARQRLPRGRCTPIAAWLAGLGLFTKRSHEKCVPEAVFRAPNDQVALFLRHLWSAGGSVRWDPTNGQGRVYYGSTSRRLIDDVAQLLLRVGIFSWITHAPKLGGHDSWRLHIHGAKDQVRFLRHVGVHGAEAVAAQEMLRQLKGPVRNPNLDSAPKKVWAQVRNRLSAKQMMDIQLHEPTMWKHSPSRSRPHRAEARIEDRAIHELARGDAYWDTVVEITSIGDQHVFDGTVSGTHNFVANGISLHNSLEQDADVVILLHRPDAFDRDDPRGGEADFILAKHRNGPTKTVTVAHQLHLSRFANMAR
# Genome polyprotein = Genome polyprotein (dengue virus type 2, UniProt P29990); experiment: flavivirus cap methylation enzyme inhibition – biochemical, confirmation dose response, primary screen (AID 588689); assay type: functional
# Protein RecA = molecular target: T4, Protein RecA (Mycobacterium tuberculosis, UniProt P9WHJ3); experiment: Fluorescence Cell-Free Homogeneous Dose Retest to Identify Inhibitors of RecA-Intein Splicing Activity. [Related pubchem assays (depositor defined):AID2097, AID2223, AID489010, AID492950]; assay type: functional
# T4 sequence (P9WHJ3 whole entry): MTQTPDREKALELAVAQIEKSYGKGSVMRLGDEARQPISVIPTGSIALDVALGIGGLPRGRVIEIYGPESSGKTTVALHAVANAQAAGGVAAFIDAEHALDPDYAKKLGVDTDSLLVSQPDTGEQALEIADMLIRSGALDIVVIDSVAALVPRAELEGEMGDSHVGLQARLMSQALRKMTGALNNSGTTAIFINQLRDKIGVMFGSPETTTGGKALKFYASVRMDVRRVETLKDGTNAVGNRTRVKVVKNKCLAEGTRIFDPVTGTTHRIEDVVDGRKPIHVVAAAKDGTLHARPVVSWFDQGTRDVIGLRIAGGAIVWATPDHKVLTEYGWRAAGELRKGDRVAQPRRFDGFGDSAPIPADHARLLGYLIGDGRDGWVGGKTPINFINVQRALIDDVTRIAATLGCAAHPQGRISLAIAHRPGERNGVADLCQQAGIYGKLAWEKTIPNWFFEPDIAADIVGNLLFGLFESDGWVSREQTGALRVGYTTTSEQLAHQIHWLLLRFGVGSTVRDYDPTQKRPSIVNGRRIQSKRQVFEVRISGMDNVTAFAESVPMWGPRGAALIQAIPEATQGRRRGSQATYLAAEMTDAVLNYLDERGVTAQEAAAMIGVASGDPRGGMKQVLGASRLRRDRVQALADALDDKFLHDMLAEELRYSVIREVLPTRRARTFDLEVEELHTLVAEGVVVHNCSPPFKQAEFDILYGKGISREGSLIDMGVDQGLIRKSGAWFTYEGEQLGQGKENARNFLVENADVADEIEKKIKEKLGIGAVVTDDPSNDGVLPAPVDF
# [9] = molecular target: DNA damage-inducible transcript 3 protein (Mus musculus, UniProt P35639); assay type: functional, Cricetulus griseus
# DNA damage-inducible transcript 3 protein, sequence (P35639 whole entry): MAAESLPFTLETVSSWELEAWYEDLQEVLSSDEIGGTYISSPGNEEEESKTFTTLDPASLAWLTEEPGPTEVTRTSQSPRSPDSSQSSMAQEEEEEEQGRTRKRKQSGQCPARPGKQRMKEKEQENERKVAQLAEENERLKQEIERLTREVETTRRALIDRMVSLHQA
# HEK293 [10] = experiment: cells; details: Homo sapiens
# HEK293 [11] = experiment: cells; details: Homo sapiens; remark: listed apart in the source
# X-box-binding protein 1 = X-box-binding protein 1 (Homo sapiens, UniProt P17861); assay type: functional, Cricetulus griseus;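 further: confirmatory dose-response counter-screen serving a CHOP assay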
# X-box-binding protein 1, sequence (P17861 whole entry): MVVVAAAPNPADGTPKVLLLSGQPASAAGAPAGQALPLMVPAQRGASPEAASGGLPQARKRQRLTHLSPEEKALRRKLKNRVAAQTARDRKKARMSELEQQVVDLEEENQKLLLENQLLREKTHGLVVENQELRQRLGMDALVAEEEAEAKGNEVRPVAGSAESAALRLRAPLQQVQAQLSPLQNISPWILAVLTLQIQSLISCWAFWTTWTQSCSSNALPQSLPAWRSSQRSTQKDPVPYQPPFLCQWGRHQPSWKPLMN
# [12] = molecular target: ADP-ribosylation factor GTPase-activating protein 1 (Rattus norvegicus, UniProt Q62848); experiment: Fluorescence polarization-based biochemical high throughput dose response screening assay to identify inhibitors of ADP-ribosylation factor GTPase activating protein 1 (ARFGAP1).; assay type: functional
# [13] = molecular target: Arf-GAP with SH3 domain, ANK repeat and PH domain-containing protein 1 (Homo sapiens, UniProt Q9ULH1); assay type: functional;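 further: biochemical fluorescence polarization dose–response screen measuring inhibition of ASAP1; ASAP1 GAP domain stimulating GTP hydrolysis by truncated human ARF1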
# [14] = molecular target: T5, Mannose-6-phosphate isomerase (Homo sapiens, UniProt P34949); experiment: MPI inhibition at elevated mannose 6-phosphate – biochemical, fluorescence intensity, high mannose 6-phosphate, primary screen (AID 1220)
# T5 sequence (P34949 whole entry): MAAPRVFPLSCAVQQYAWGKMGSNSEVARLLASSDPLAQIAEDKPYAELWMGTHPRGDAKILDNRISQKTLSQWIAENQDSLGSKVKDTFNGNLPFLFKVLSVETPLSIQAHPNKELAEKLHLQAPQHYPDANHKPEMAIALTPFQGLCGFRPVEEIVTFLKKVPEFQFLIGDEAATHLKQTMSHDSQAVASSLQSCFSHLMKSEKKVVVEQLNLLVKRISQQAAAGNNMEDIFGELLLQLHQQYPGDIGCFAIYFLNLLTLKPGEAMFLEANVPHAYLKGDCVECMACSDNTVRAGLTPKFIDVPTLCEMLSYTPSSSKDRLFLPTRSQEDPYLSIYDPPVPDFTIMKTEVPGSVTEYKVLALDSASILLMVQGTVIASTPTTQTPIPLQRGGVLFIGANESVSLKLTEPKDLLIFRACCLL
# [15] = molecular target: Lysine-specific demethylase 4A (Homo sapiens, UniProt O75164); experiment: inhibition of JMJD2A H3K9me3 demethylation – biochemical, DELFIA europium, cherry-picked samples, selectivity assay for GASC-1 inhibitor project, dose response (AID 488840)
# Lysine-specific demethylase 4A, sequence (O75164 whole entry): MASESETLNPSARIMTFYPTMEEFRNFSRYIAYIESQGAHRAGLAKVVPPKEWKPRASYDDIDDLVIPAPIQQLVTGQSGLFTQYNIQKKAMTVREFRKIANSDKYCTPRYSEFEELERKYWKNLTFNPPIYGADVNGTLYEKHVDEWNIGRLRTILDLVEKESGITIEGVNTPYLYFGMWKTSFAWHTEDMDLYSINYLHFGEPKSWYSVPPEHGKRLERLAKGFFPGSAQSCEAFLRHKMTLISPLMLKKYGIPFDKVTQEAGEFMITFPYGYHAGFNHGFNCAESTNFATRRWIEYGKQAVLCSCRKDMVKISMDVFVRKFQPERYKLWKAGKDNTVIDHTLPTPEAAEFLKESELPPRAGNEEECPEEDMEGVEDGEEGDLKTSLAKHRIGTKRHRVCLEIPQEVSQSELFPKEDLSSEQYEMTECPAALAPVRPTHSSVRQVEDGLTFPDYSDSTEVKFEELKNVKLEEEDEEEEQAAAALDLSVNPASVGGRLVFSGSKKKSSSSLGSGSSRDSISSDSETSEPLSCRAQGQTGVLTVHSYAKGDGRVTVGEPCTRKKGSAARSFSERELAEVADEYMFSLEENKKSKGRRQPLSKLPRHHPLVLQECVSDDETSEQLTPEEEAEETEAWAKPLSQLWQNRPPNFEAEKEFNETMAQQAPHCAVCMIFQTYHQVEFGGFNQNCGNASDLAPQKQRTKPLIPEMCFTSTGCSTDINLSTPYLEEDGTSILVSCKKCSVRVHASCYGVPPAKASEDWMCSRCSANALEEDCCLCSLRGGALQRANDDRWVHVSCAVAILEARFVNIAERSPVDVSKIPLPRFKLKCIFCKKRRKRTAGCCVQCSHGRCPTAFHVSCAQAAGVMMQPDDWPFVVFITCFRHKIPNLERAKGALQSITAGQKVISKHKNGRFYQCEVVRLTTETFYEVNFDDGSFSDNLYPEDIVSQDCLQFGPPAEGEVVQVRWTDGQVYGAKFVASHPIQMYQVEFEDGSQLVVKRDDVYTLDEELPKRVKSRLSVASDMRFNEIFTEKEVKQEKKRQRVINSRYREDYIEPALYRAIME
# [16] = molecular target: T6, Orexin/Hypocretin receptor type 1 (Homo sapiens, UniProt O43613); experiment: (§1) Fluorescence-based cell-based high throughput dose response assay for antagonists of the orexin 1 receptor (OX1R; HCRTR1). [Related pubchem assays (depositor defined):AID434989, AID435008, AID463079, AID485270, AID492963, AID492964, AID492965, AID493232, AID504717, AID504718]; assay type: functional
# T6 sequence (O43613 whole entry): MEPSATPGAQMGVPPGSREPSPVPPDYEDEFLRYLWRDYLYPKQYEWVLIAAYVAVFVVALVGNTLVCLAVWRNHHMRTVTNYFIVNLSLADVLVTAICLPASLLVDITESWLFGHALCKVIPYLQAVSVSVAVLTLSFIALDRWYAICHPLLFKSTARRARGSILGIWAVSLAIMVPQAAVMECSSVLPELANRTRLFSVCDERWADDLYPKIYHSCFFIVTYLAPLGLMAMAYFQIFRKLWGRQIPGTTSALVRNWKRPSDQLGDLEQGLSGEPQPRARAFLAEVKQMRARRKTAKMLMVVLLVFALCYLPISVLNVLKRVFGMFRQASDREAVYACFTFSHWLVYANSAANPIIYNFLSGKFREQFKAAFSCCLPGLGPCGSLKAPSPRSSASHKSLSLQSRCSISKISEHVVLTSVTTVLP
# [17] = molecular target: T6, Orexin/Hypocretin receptor type 1; experiment: as §1, with “Homogeneous Time Resolved Fluorescence (HTRF)-based” for “Fluorescence-based”; assay type: functional
# [18] = (§2) Counterscreen for antagonists of the orexin 1 receptor (OX1R; HCRTR1): Fluorescence-based cell-based high throughput dose response assay to identify antagonists of the parental CHO cell line. [Related pubchem assays (depositor defined):AID434989, AID435008, AID463079, AID485270, AID492963, AID492964, AID492965, AID493232, AID504699, AID504701]; assay type: functional
# CHO-K1 = experiment: as §2, with “Homogeneous time resolved fluorescence (HTRF)-based” for “Fluorescence-based”, “cell-based” for “cell-based high throughput”, “CHO-K1” for “CHO”; assay type: functional; details: Cricetulus griseus;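 further: potency for inhibition of ATP-stimulated IP1 production as antagonists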
compound,measurement,setting,value
CC(C)n1nnnc1-c1cc(Cl)cc(Cl)c1,EC50,[1],> 55.7 µM (not active)
same,EC50,[2],> 120 µM (not active)
same,EC50,[3],> 55.7 µM (not active)
same,AC50,Cytochrome P450 2D6,inconclusive
same,EC50,[4],10.2 µM (active)
same,EC50,[5],> 120 µM (not active)
C[N+](C)(N)CCC[N+](C)(C)N,AC50,Cytochrome P450 2C19,inconclusive
same,AC50,Cytochrome P450 2D6,inconclusive
Cc1cc(C)c(S(=O)(=O)ON2C(=O)c3ccccc3C2=O)cc1C,IC50,Fatty acid synthase [6],0.744 µM (active)
same,IC50,Prothrombin,2.57 µM (active)
same,IC50,Fatty acid synthase [7],3.91 µM (active)
same,AC50,[8],> 380 µM (inactive)
same,IC50,Genome polyprotein,76.2 µM (active)
same,EC50,Protein RecA,10.2 µM (active)
same,Absolute IC50 (CHOP),[9],10 µM
CCc1nn(C(CC)C(=O)NCCc2ccc(OC)cc2OC)c(=O)c2cc3occc3n12 (configuration not stated),EC50,HEK293 [10],> 59.6 µM (inactive)
same,EC50,HEK293 [11],> 59.6 µM (inactive)
Cn1c(=O)n(CCOc2ccc(Cl)cc2Cl)c2ccccc21,Absolute IC50 (XBP1),X-box-binding protein 1,10 µM
same,IC50,[12],18.4 µM (inactive)
same,Absolute IC50 (CHOP),[9],10 µM
same,IC50,[13],18.4 µM (inactive)
CC(=O)Nc1ccc2c(c1)C(C)(C)C(C)N2C (configuration not stated),IC50,[14],> 50 µM (not active)
same,AC50,[15],17.9 µM (active)
Cc1ccc(N(CC(=O)NCCc2ccc(Cl)cc2)S(=O)(=O)c2c(C)noc2C)cc1,IC50,[16],2.87 µM (active)
same,IC50,[17],0.585 µM (active)
same,IC50,[18],> 49.8 µM (inactive)
same,IC50,CHO-K1,> 66.2 µM (inactive)
